The source made the active and inactive calls. How the calls were made is not given here. Some results are limits rather than exact numbers.

Sequence of Ephrin type-B receptor 4 (Homo sapiens) (P54760 whole entry, looked up): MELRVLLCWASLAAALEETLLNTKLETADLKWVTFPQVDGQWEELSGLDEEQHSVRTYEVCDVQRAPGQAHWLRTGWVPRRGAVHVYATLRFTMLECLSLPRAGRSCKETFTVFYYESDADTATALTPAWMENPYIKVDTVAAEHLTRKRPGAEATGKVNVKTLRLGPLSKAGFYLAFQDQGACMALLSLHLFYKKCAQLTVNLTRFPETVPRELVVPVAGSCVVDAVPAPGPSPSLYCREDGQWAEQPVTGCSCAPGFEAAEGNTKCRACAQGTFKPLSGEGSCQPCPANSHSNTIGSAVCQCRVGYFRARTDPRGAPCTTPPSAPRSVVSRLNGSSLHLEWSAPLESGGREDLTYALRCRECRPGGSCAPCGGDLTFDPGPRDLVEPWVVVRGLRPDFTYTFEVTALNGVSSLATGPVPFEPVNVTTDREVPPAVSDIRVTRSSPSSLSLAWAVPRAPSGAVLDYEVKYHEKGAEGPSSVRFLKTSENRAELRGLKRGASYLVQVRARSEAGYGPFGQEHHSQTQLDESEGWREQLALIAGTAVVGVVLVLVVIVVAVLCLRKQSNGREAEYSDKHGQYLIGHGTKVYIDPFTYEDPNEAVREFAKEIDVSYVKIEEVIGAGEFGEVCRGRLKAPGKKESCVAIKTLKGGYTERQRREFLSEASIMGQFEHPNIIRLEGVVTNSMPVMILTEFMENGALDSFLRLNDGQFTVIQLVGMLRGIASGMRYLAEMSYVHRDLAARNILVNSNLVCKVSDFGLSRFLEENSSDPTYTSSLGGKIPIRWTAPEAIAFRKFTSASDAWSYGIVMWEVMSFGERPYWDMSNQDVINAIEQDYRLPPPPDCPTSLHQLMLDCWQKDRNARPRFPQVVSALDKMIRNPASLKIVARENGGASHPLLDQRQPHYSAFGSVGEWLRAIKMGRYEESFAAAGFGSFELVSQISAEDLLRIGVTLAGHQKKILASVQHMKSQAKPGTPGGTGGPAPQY

The assay addresses Ephrin type-B receptor 4 (Homo sapiens) (UniProt P54760). Nature of the assay: blockers of EphB4 ligand binding – biochemical, TNYL-RAW peptide displacement, dose response (AID 835). To be noted: EphB4-ephrin-B2 interaction.
As to `Clc1cccc(/C=N/Nc2ncnc3ccccc23)c1`, the IC50 was > 79.4 µM (inactive). Then `CC1=Nc2ccccc2/C1=C\c1nc(-c2ccc(F)cc2)oc1O`, with > 79.4 µM (inactive).

Regarding `CCCc1[nH]nc2c1C(c1ccc(OC)c(Cn3nnc4ccccc43)c1)C(C#N)=C(N)O2` (centres undefined), the IC50 was > 79.4 µM (inactive). Take `CCOc1cccc(N2C(=O)CC(=O)NC2=O)c1`: the IC50 is > 79.4 µM (inactive). With `CC1=Nc2ccccc2/C1=C\c1nc(-c2ccc(C(F)(F)F)cc2)oc1O`, the IC50 was > 79.4 µM (inactive). Then `COC(=O)CSC1=C(C#N)C(c2ccc(C)cc2)C2=C(CCCC2=O)N1` (centres undefined), with > 79.4 µM (inactive); and `Oc1[nH]c2ccccc2c1N=Nc1nc2ccccc2s1`, with > 79.4 µM (inactive); and `CCOC(=O)C1=C(c2ccccc2)N2CCS(=O)(=O)N=C2S1`, with > 79.4 µM (inactive). The figure for `CCn1c(O)c(C=Nc2ccc(N3CCOCC3)cc2)c(=O)n(CC)c1=S` is > 79.4 µM (inactive).

Values taken from PubChem BioAssay AID835 (The Scripps Research Institute Molecular Screening Center, 2007).
